Where two headings read alike, the source gives them in different places.

The assay has as its system HT-29 cells. The assay is described as follows: HT29 Cells 0FBS Assay In Vitro (TNF-α/SMAC mimetic/zVAD-FMK induced necroptosis, CellTiter-Glo cell viability). It is filed as cell-based. The note with it: Homo sapiens, HT-29 cells, FBS free medium, TNF-α (10 ng/ml), SMAC mimetic (6 uM), zVAD-FMK (10 μM), 20 hours, geometric mean EC50. The essentials:
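HT-29 cells (5,000/well, seeded overnight) in serum-free McCoy's 5A were stimulated with TNF-α 10 ng/ml, SMAC mimetic 6 μM and zVAD-FMK 10 μM to induce necroptosis. Compound added as 10-point 3-fold series for 20 h at 37° C. CellTiter-Glo luminescence gives viability; EC50 is geometric mean of duplicate dose-responses.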
For orientation: ATP-based viability assays read luminescence as a measure of living cells.

Setting [1] is: read-out: Cell activity (EC50) of Compounds 1-116.
The mark [2] stands for this setting: read-out: Cell activity (EC50) of Compounds 117-281.

`Cc1nn(-c2cc(OC3CN(C(=O)N4N=CC[C@H]4c4cc(F)cc(F)c4)C3)c(F)cn2)c(C)c1N` [compound 109, (S)-(3-((2-(4-amino-3,5-dimethyl-11H-pyrazol-1-yl)-5-fluoropyridin-4-yl)oxy)azetidin-1-yl)(5-(3,5-difluorophenyl)-4,5-dihydro-1H-pyrazol-1-yl)methanone]: the EC50 under setting [1] was 0.1 to 100 nM.

`Cn1nc(CO)cc1-c1cc(OC2CN(C(=O)N3N=CC[C@H]3c3cc(F)cc(F)c3)C2)c(F)cn1` [compound 174, (S)-(5-(3,5-difluorophenyl)-4,5-dihydro-1H-pyrazol-1-yl)(3-((5-fluoro-2-(3-(hydroxymethyl)-1-methyl-1H-pyrazol-5-yl)pyridin-4-yl)oxy)azetidin-1-yl)methanone]: under setting [2], the EC50 was 0.1 to 100 nM.

As to `CCOC(=O)c1c(C)cc(C)n1-c1cc(OC2CN(C(=O)N3N=CC[C@H]3c3cc(F)cc(F)c3)C2)c(F)cn1` [compound 128, Ethyl (S)-1-(4-((1-(5-(3,5-difluorophenyl)-4,5-dihydro-1H-pyrazole-1-carbonyl)azetidin-3-yl)oxy)-5-fluoropyridin-2-yl)-3,5-dimethyl-1H-pyrrole-2-carboxylate], under setting [2], the EC50 is 0.1 to 100 nM.

In the case of `Cc1c(CN)nn(C)c1-c1cc(OC2CN(C(=O)N3N=CC[C@H]3c3cc(F)cc(F)c3)C2)c(F)cn1` [compound 211, (S)-(3-((2-(3-(aminomethyl)-1,4-dimethyl-11H-pyrazol-5-yl)-5-fluoropyridin-4-yl)oxy)azetidin-1-yl)(5-(3,5-difluorophenyl)-4,5-dihydro-1H-pyrazol-1-yl)methanone], under setting [2], the EC50 lay within 0.1 to 100 nM.

Take `Cc1[nH]c(C(N)=O)c(C)c1-c1cc(OC2CN(C(=O)N3N=CC[C@H]3c3cc(F)cc(F)c3)C2)c(F)cn1` [compound 191, (S)-4-(4-((1-(5-(3,5-difluorophenyl)-4,5-dihydro-1H-pyrazole-1-carbonyl)azetidin-3-yl)oxy)-5-fluoropyridin-2-yl)-3,5-dimethyl-1H-pyrrole-2-carboxamide]: under setting [2], the EC50 is 0.1 to 100 nM.

Turning to `Cc1nscc1-c1ccc(F)c(OC2CN(C(=O)N3N=CC[C@H]3c3cc(F)cc(F)c3)C2)n1` [compound 16, (S)-(5-(3,5-difluorophenyl)-4,5-dihydro-1H-pyrazol-1-yl)(3-((3-fluoro-6-(3-methylisothiazol-4-yl)pyridin-2-yl)oxy)azetidin-1-yl)methanone], the EC50 under setting [1] fell in the range of 0.1 to 100 nM.

`Cc1nn(-c2cc(OC3CN(C(=O)N4N=CC[C@H]4c4cc(F)cc(F)c4)C3)c(F)cn2)c(C)c1C(=O)NCCN(C)C` [compound 256, (S)-1-(4-((1-(5-(3,5-difluorophenyl)-4,5-dihydro-1H-pyrazole-1-carbonyl)azetidin-3-yl)oxy)-5-fluoropyridin-2-yl)-N-(2-(dimethylamino)ethyl)-3,5-dimethyl-1H-pyrazole-4-carboxamide]: under setting [2], the EC50 lay within 0.1 to 100 nM.

`Cc1c(N(C)CC2CC2)nn(C)c1-c1cc(OC2CN(C(=O)N3N=CC[C@H]3c3cc(F)cc(F)c3)C2)c(F)cn1` [compound 164, (S)-(3-((2-(3-((cyclopropylmethyl)(methyl)amino)-1,4-dimethyl-1H-pyrazol-5-yl)-5-fluoropyridin-4-yl)oxy)azetidin-1-yl)(5-(3,5-difluorophenyl)-4,5-dihydro-1H-pyrazol-1-yl)methanone]: the EC50 under setting [2] lay within 0.1 to 100 nM.

As to `Cc1c(-c2cc(OC3CN(C(=O)N4N=CC[C@H]4c4cc(F)cc(F)c4)C3)c(F)cn2)nn(C)c1N` [compound 218, (S)-(3-((2-(5-amino-1,4-dimethyl-1H-pyrazol-3-yl)-5-fluoropyridin-4-yl)oxy)azetidin-1-yl)(5-(3,5-difluorophenyl)-4,5-dihydro-1H-pyrazol-1-yl)methanone], the EC50 under setting [2] lay in the range of 0.1 to 100 nM.

On to `Cc1c(NCC(N)=O)nn(C)c1-c1cc(OC2CN(C(=O)N3N=CC[C@H]3c3cc(F)cc(F)c3)C2)c(F)cn1` [compound 145, (S)-2-((5-(4-((1-(5-(3,5-difluorophenyl)-4,5-dihydro-1H-pyrazole-1-carbonyl)azetidin-3-yl)oxy)-5-fluoropyridin-2-yl)-1,4-dimethyl-1H-pyrazol-3-yl)amino)acetamide], for which the EC50 under setting [2] was 0.1 to 100 nM.

As a reminder, the EC50 is the concentration giving half of the maximal effect.
